From patent US12428447B2, “Peptide-based non-proteinaceous cargo delivery” (priority 2019, dated 2025)
Bridges are numbered along the chain shown (N, C = ends). Where no end group is shown, it is not given here. [ ]: non-standard residue; d: D form.

Experiments:
[1] = system: HedgeHog signalling pathway; experiment: Hedgehog pathway inhibitor delivery to Gli-luciferase reporter NIH3T3 cells (luminescence); type: cell-based, Mouse; conditions: for Mean luminescence intensity: inhibitor 100 μM, 90 seconds, mShh-stimulated reporter cells; for cellular luminescence intensity in the presence of FSD250D as compared to in the absence of FSD250D: +mShh, inhibitor transduced by FSD250D
Procedure: Stock solutions of cargoes were prepared as follows: Gant61 stock (20 mM in DMSO); HPI4 stock (40 mM in DMSO); Itraconazole stock (4.8 mM (4 mg/mL) in DMSO); Arsenic trioxide (ATO) stock (40 mM in H2O). Peptide shuttle agent (5 μM) and Hedgehog pathway inhibitor (100 μM) were mixed and volume was completed to 50 μL with PBS.
Hedgehog signaling pathway Gli Reporter NIH 3T3 cells were cultured in DMEM containing 10% calf serum. Cells were trypsinized, centrifuged and resuspended at 10 million cells/mL in PBS. 50 μL of cells (500 000 cells/well) were distributed in a round bottom non-treated 96-well plate. Resuspended cells were mixed with a delivery mix containing the peptide shuttle agent (5 μM) and Hedgehog pathway inhibitor (100 μM). Cells were incubated 90 seconds with the delivery mix at room temperature, 200 μL of DMEM containing 10% calf serum (200 μL) was added in each well, and cells were centrifuged (400 g, 4 min.) and washed with 200 μL of PBS. Cells were then resuspended in 200 μL of DMEM and then transferred to a well of a 6-well plate containing 1 mL of DMEM containing 10% calf serum and incubated at 37° C. for 2 hours. The media was gently removed and 1 ml of either control media (Opti-MEM™) or activating media (Opti-MEM with 5 μg/mL mShh) was added to each well. Cells were incubated at 37° C. for 24-30 hours.
For analyses, cells were trypsinized and resuspended in each well with 200 μL of Opti-MEM™, and then split equally to two wells of a round bottom 96-well plate. Viability was assessed using flow cytometry analysis and ONE-Step Luciferase assay was used to measure luminescence following manufacturer's instructions.
Briefly, the NIH3T3 Gli-luciferase reporter cell line is designed to monitor the activity of the HedgeHog signaling pathway and contains the firefly luciferase gene under the control of Gli responsive elements stably integrated into NIH3T3 cells. As shown in FIG. 3 and Table 1, exposure of the NIH3T3 Gli-luciferase reporter cells to recombinant mouse Sonic HedgeHog protein as a positive control (“Ctrl+mShh”) results in an increase in luminescence intensity that is not observed in the negative control cells which were not exposed to mShh (“Ctrl−mShh”).

HedgeHog pathway = experiment: Hedgehog pathway inhibitor transduction in vivo, depilated mouse hair regrowth; design: species or system C57BL6 mice; conditions: 100 μM inhibitor, topical on depilated skin, in the presence of FSD250D vs in its absence, 10 days post-treatment
sodium channel Nav1.7 = target: T1, sodium channel Nav1.7 (Homo sapiens, UniProt Q15858); experiment: QX-314 delivery, whole-cell patch-clamp of HEK293 cells stably expressing Nav1.7; type: cell-based
T1 construct: expressed in transfected cells
Procedure: Cell culture. HEK293 cells stably expressing Nav1.7 were grown in Dulbecco's minimal essential medium (DMEM, Gibco BRL Life Technologies) supplemented with fetal bovine serum (FBS, 10%), L-glutamine (2 mM), penicillin (100 U/mL), streptomycin ([…]). The cells were incubated at 37° C. in a 5% CO2 humidified atmosphere.
(§1) Delivery. Cells were seeded 24 hours prior to the experiment in 24-well plate. Cells were washed twice with PBS. A solution containing 1 mM of QX-314, 5 μM of FSD194 and 15 μM of GFP-NLS protein was applied to cells for 90 seconds and removed by aspiration. Control was performed using 5 μM of FSD194 or of 2.5 mM QX-314, in presence of GFP-NLS. Cells were washed with 800 μL of DMEM containing 10% FBS and transferred in the recording solution to perform the electrophysiology. GFP-positive cells were determined by microscopy and then selected for patch-clamp analysis.
Electrophysiology. Frequency protocol with QX-314 was recorded within 30 s after the whole-cell configuration was formed. Frequency protocol consists of a pulse of 10 ms at −20 mV from a holding potential of −140 mV at 10 Hz. Whole-cell Na+ currents in HEK293 cells were recorded at room temperature using an Axopatch 200B with the whole-cell configuration of the patch-clamp technique (Molecular Devices). pClamp v10.0 was used for the pulse stimulations and recordings (Molecular Devices). Currents were filtered at 5 kHz, digitized at 100 kHz using a Digidata 1550 AD converter (Molecular devices), and stored on a computer for subsequent analyses. Series resistance was compensated by 70-80%. When needed, linear leak current artifacts were removed using on-line leak subtraction. Fire-polished low-resistance electrodes (2MS2) were pulled from 8161 glass (Corning).
Recording Solutions. Bath solution: 35 mM NaCl, 115 mM NMDG, 2 mM KCl, 1.5 mM CaCl2, 1.0 mM MgCl2, 10 mM glucose, 10 mM HEPES. The pH was adjusted to pH 7.3 with 1 M NaOH. Pipette solution: 35 mM NaCl, 105 mM CsF, 10 mM EGTA, and 10 mM HEPES. The pH was adjusted to pH 7.4 with 1 M CsOH.

HeLa cells = experiment: Propidium iodide (PI) transduction in HeLa cells, flow cytometry; type: cell-based, Human; conditions: for delivery / transduction of PI: shuttle or control peptide 10 μM, PI 10 μg/mL, 1 minute, 2 hours after delivery
Procedure: HeLa cells were plated (20 000 cells/well) in a 96 well-dish the day prior the experiment. Each delivery mix comprising a synthetic peptide shuttle agent (10 μM) and the propidium iodide (PI) (10 μg/mL) or the GFP-NLS (10 μM) were prepared and completed to 50 μL with phosphate-buffered saline (PBS). Cells were washed once with PBS and the Shuttle/PI or Shuttle/GFP-NLS added on cells for one minute. Then 100 μL DMEM containing 10% FBS was added to the mix and removed. Cells were washed once with PBS and incubated in DMEM containing 10% FBS. Cells were analyzed after 2-hour incubation by flow cytometry. For the condition “FS then PI”, only the synthetic peptide shuttle agent (10 μM) was added on HeLa cells for 1 minute and one hour later PI (10 μg/mL) was added for one minute following the same washing step. Cells were analyzed one hour after PI or GFP-NLS treatment.
HeLa cells were cultured as described in Example 1.3 and subjected to the PI transduction protocol as described in Example 1.4, with the proteinaceous cargo GFP-NLS being transduced separately as a control in some experiments. Results were acquired by flow cytometry two hours after delivery and expressed as percentages of fluorescent cells (% PI+ cells or % GFP+ cells), as shown in FIGS. 1A-1D and as summarized in the table shown in FIG. 2.
To evaluate the suitability of PI as a “surrogate” cargo for novel shuttle agents, a proprietary library of over 300 candidate peptide shuttle agents was screened in parallel for both PI and GFP-NLS transduction activity in HeLa cells using flow cytometry as generally described in Example 1.4. Aside from the concentrations of the cargoes (i.e., 10 μg/mL for PI vs 10 μM for GFP-NLS), the transduction protocols were otherwise the same.
Due to the large number of peptides screened, negative controls were performed in parallel for each experimental batch and included a “no treatment” (NT) control in which the cells were not exposed to shuttle peptide or cargo, as well as a “cargo alone” control in which cells were exposed to the cargo in the absence of shuttle agent. Results are shown in FIGS. 6 and 7, in which “transduction efficiency” refers to the percentage of all viable cells that are positive for the cargo (PI or GFP-NLS). “Mean Delivery score” provides a further indication of the total amount of cargo that was delivered per cell, amongst all cargo-positive cells. Mean PI or GFP-NLS delivery score was calculated by multiplying the mean fluorescence intensity (of at least duplicate samples) measured for the viable PI+ or GFP+ cells by the mean percentage of viable PI+ or GFP+ cells, divided by 100,000 for GFP delivery or by 10,000 for PI delivery. […]

HEK293 cells = experiment: GFP-NLS co-transduction in HEK293 cells, microscopy; type: cell-based, Human; conditions: 5 μM FSD194+15 μM GFP-NLS, with or without QX-314
Procedure: as §1

T1 sequence (Q15858 whole entry): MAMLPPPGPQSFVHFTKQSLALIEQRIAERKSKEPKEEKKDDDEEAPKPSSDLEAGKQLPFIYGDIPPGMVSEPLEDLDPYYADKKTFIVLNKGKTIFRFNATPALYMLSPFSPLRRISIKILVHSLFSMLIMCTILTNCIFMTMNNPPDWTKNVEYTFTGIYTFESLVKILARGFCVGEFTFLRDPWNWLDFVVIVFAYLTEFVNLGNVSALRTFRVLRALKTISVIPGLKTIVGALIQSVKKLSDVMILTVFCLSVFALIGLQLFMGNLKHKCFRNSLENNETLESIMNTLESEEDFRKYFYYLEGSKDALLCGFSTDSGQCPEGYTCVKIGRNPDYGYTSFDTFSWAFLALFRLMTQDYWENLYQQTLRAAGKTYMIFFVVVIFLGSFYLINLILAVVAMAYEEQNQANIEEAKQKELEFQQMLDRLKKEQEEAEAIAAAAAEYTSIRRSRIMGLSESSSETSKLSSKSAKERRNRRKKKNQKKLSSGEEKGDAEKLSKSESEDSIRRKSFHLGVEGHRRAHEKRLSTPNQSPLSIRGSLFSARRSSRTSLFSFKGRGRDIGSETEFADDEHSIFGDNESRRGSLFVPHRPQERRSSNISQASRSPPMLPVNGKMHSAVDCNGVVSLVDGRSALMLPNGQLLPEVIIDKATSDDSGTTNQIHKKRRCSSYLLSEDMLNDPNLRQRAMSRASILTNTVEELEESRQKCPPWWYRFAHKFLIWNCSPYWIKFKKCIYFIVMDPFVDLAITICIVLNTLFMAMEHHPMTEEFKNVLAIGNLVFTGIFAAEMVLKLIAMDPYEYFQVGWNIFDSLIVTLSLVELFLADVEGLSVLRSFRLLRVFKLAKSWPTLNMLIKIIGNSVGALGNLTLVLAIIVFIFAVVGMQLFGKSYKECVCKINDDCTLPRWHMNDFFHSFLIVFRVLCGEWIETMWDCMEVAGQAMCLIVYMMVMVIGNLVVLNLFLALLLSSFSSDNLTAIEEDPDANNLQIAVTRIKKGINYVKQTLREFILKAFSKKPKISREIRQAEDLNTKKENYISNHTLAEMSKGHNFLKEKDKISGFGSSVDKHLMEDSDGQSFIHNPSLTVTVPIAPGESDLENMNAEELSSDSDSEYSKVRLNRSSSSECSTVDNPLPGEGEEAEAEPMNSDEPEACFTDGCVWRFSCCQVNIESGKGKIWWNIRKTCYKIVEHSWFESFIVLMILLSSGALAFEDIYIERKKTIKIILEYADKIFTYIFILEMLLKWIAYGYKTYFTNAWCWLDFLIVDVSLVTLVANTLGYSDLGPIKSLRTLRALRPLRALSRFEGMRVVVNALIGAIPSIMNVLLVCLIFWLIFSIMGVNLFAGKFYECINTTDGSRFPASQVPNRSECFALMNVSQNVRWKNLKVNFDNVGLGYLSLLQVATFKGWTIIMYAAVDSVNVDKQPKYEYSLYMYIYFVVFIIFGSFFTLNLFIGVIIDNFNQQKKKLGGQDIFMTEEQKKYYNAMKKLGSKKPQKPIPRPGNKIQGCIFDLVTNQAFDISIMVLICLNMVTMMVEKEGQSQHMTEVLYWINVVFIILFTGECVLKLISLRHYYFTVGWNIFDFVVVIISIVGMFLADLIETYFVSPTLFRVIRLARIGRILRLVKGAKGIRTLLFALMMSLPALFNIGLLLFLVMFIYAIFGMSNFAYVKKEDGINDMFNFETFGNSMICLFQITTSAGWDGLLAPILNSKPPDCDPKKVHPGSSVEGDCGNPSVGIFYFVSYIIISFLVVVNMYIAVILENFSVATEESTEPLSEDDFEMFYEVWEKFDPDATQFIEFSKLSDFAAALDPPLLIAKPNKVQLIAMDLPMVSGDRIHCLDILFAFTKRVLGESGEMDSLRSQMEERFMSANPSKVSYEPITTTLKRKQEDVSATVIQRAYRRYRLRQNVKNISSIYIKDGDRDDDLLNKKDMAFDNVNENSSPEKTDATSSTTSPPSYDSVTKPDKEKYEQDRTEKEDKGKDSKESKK

## CN(C)c1ccccc1CN1CCCN(Cc2ccccc2N(C)C)C1c1ccncc1 [Gant61]
[1]; +FSD250D (5 μM)
  Mean luminescence intensity: 4216
[1]
  cellular luminescence intensity in the presence of FSD250D as compared to in the absence of FSD250D: significantly reduced cellular luminescence intensity
[1]; −FSD250D
  Mean luminescence intensity: 6770
HedgeHog pathway
  hair regrowth: delayed hair regrowth

## N#C/C(C(=O)c1ccc(Cl)cc1Cl)=C1\NC(=O)c2ccccc2N1 [HPI-4]
[1]; +FSD250D (5 μM)
  Mean luminescence intensity: 1993
[1]
  cellular luminescence intensity in the presence of FSD250D as compared to in the absence of FSD250D: significantly reduced cellular luminescence intensity
[1]; −FSD250D
  Mean luminescence intensity: 6370

## CCC(C)n1ncn(-c2ccc(N3CCN(c4ccc(OCC5COC(Cn6cncn6)(c6ccc(Cl)cc6Cl)O5)cc4)CC3)cc2)c1=O (stereo not drawn) [Itraconazole]
[1]; +FSD250D (5 μM)
  Mean luminescence intensity: 1519
[1]; −FSD250D
  Mean luminescence intensity: 5612

## CC[N+](CC)(CC)CC(=O)Nc1c(C)cccc1C.[Br-] [QX-314, Lidocaine N-ethyl bromide]
Sodium channel Nav1.7; 1 mM QX-314+15 μM GFP-NLS+5 μM FSD194, 90 seconds, 10 ms pulse at 10 Hz
  evoked whole-cell Na+ current amplitude: Reduction of the current amplitude
Sodium channel Nav1.7; 2.5 mM QX-314+15 μM GFP-NLS, absence of FSD194
  evoked whole-cell Na+ current amplitude: current amplitude reduction was not observed

## Arsenic trioxide [ATO]
[1]; +FSD250D (5 μM)
  Mean luminescence intensity: 4686
[1]
  cellular luminescence intensity in the presence of FSD250D as compared to in the absence of FSD250D: significantly reduced cellular luminescence intensity
[1]; −FSD250D
  Mean luminescence intensity: 5967

## FSD174 Scramble: negative control peptide, same amino acid composition as FSD174, order changed (LGRSGRIKIGGWSALASRARQARGLKIWTQGRL; FSD174 Scramble)
HeLa cells; negative control peptide, data not shown
  PI transduction efficiency relative to "cargo alone" negative control: lower transduction efficiencies for PI

## FSD194: rationally-designed synthetic peptide shuttle agent (KWKLLKLWSRLLKLWGGSGGGSRRLKAKRAKA; FSD194)
Sodium channel Nav1.7; 15 μM GFP-NLS+5 μM FSD194, without QX-314
  evoked whole-cell Na+ current amplitude: current amplitude reduction was not observed
HEK293 cells
  GFP-NLS-positive cells: GFP-NLS-positive cells were identified

## FSD250D: same amino acid sequence as FSD250, except that all the amino acids are D-amino acids ([dK][dW][dK][dL][dL][dK][dL][dW][dS][dR][dL][dL][dK][dL][dW]GG[dS]GGG[dS][dA][dR][dA][dA][dR][dQ][dA][dR])
[1]; FSD250D together with mShh, no inhibitor, data not shown
  effect of shuttle agent alone on luminescence intensity following mShh stimulation: had no effect on cellular luminescence intensity

## FSD268 Cyclic Amide: cyclic peptide possessing an amide bond between its C and N termini (KWKLLKLWSRLLKLWGGSGGGSQARAQARQAR; head-to-tail cyclic amide; FSD268 Cyclic Amide; (1)..(32) Cyclic peptide covalent link between K1 and R32)
HeLa cells
  delivery / transduction of PI: increased the delivery of PI

## FSD268 Cyclic Disulfide: cyclic peptide with a disulfide bridge between two flanking cysteines added in N and C terminal positions (CKWKLLKLWSRLLKLWGGSGGGSQARAQARQARC; disulfide 1-34)
HeLa cells
  delivery / transduction of PI: increased the delivery of PI

## FSD268: rationally-designed synthetic peptide shuttle agent (KWKLLKLWSRLLKLWGGSGGGSQARAQARQAR; FSD268)
HeLa cells
  delivery / transduction of PI: increased the delivery of PI
